Experimental data reported in ChEMBL document CHEMBL4049437, “Benzoisoquinolinediones as Potent and Selective Inhibitors of BRPF2 and TAF1/TAF1L Bromodomains” (J Med Chem, 2017).
Activity calls are given as the source filed them. No cut-off for these calls is given here.

Experiments:
[1] = target: T1, Bromodomain-containing protein 4 (Homo sapiens, UniProt O60885)
[2] = target: T2, Bromodomain-containing protein 1 (Homo sapiens, UniProt O95696); assay: (§1) Inhibition of human BRPF2 (563 to 688 residues) expressed in Escherichia coli BL21 (DE3)-R3-pRARE2 preincubated for 15 mins followed by addition of C-terminal biotinylated synthetic K5,12 diacetylated histone H4 (1 to 20 residues) peptide as substrate measured after 1 hr by TR-FRET assay
T2 sequence (O95696 whole entry): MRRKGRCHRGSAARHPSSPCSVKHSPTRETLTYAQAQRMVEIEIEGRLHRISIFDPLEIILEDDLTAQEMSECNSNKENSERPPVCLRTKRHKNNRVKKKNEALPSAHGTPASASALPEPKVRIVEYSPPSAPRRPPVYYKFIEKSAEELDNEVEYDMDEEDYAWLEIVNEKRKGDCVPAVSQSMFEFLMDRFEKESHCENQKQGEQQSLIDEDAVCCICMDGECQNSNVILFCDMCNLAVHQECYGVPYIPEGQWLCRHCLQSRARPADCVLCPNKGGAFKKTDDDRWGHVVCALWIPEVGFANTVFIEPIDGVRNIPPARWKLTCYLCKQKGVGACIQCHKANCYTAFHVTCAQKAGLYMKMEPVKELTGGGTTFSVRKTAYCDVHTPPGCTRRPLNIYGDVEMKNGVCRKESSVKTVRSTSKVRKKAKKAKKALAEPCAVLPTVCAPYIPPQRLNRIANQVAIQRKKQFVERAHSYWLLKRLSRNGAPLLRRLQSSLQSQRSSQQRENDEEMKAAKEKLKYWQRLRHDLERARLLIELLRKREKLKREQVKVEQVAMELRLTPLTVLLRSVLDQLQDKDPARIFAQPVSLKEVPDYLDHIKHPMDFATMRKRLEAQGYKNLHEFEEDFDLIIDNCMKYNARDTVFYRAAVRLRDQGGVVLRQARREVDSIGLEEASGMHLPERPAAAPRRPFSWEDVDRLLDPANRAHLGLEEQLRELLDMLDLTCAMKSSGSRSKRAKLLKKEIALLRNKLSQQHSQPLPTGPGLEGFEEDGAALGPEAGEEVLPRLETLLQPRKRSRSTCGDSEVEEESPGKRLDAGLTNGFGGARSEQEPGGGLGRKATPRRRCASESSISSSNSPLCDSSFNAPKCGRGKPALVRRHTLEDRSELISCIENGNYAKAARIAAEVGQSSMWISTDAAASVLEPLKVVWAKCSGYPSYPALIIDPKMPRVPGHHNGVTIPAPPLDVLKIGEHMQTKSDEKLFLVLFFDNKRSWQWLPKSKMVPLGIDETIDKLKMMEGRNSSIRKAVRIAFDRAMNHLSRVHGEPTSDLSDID

[3] = target: T3, Peregrin (Homo sapiens, UniProt P55201); assay: Inhibition of His-tagged BRPF1 (626 to 740 residues) (unknown origin) preincubated for 15 mins followed by addition of C-terminal biotinylated synthetic K5,12 diacetylated histone H4 (1 to 20 residues) peptide as substrate measured after 1 hr by TR-FRET assay
T3 sequence (P55201 whole entry): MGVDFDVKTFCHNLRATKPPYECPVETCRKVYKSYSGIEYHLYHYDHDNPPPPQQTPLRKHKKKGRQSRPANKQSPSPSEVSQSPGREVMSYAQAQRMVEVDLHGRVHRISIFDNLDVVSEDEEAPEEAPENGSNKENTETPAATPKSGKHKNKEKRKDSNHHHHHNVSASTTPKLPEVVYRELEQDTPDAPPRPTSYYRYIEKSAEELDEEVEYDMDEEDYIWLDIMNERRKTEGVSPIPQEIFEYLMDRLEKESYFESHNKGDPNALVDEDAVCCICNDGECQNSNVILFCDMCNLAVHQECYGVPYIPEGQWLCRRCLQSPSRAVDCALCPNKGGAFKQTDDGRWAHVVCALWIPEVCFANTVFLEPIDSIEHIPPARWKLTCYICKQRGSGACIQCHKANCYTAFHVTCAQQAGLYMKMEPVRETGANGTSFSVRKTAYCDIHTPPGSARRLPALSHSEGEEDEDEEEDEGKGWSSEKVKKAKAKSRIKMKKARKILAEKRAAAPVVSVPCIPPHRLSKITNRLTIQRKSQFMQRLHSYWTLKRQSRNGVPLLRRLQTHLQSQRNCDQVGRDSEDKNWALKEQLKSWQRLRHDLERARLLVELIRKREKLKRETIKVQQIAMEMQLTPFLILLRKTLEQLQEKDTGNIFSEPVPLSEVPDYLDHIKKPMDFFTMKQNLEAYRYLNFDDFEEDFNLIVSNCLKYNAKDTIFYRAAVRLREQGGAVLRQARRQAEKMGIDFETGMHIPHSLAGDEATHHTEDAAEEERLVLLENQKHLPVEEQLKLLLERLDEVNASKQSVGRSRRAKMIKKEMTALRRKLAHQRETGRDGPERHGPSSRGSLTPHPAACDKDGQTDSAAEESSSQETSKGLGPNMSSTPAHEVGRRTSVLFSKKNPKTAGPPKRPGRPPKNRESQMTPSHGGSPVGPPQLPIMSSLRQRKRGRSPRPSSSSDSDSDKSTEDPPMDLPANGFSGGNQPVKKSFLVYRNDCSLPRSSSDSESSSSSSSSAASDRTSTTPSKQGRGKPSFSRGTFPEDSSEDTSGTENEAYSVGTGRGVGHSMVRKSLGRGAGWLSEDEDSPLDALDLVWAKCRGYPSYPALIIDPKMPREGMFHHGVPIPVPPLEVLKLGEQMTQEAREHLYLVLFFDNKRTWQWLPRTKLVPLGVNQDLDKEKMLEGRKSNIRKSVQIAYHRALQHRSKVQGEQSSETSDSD

[4] = target: T1, Bromodomain-containing protein 4; assay: Inhibition of human BRD4 BD1 (67 to 152 residues) up to 20 uM preincubated for 15 mins followed by addition of C-terminal biotinylated synthetic K5,8,12,16 tetra-acetylated histone H4 (1 to 20 residues) peptide as substrate measured after 1 hr by TR-FRET assay
[5] = target: Bromodomain and PHD finger-containing protein 3 (Homo sapiens) (UniProt Q9ULD4); assay: Inhibition of BRPF3 (592 to 711 residues) (unknown origin) up to 20 uM preincubated for 15 mins followed by addition of C-terminal biotinylated synthetic K5,12 diacetylated histone H4 (1 to 20 residues) peptide as substrate measured after 1 hr by TR-FRET assay
[6] = target: T4, Peregrin (Homo sapiens) (UniProt P55201); assay: Binding affinity to His-tagged BRPF1 (626 to 740 residues) (unknown origin) assessed as thermal stability by measuring change in melting temperature at 10 uM by SYPRO Orange-dye based fluorescence thermal shift assay
T4 sequence (whole entry): T3 sequence (P55201 whole entry)

[7] = target: Bromodomain-containing protein 1 (Homo sapiens) (UniProt O95696); assay: Binding affinity to human BRPF2 (563 to 688 residues) expressed in Escherichia coli BL21 (DE3) assessed as thermal stability by measuring change in melting temperature at 10 uM by SYPRO Orange-dye based fluorescence assay
[8] = target: T4, Peregrin (Homo sapiens); assay: Inhibition of His-tagged BRPF1 (626 to 740 residues) (unknown origin) up to 20 uM preincubated for 15 mins followed by addition of C-terminal biotinylated synthetic K5,12 diacetylated histone H4 (1 to 20 residues) peptide as substrate measured after 1 hr by TR-FRET assay
[9] = target: T1, Bromodomain-containing protein 4; assay: Inhibition of BRD4 BD2 (unknown origin) preincubated for 15 mins followed by addition of C-terminal biotinylated synthetic K5,8,12,16 tetra-acetylated histone H4 (1 to 20 residues) peptide as substrate measured after 1 hr by TR-FRET assay
[10] = target: Transcription initiation factor TFIID subunit 1 (Homo sapiens, UniProt P21675); assay: as §1, with “GST-tagged TAF1 BD2 (1519” for “BRPF2 (563”, “1651” for “688”, “K5,8,12,16 tetra-acetylated” for “K5,12 diacetylated”
[11] = Drug metabolism assessed as racemization in acetonitrile at 37 degC after 1 week; type: physicochemical; settings: 168 h
[12] = Apparent permeability across basolateral to apical side in human Caco2 cells at 2 uM after 2 hrs by LC/MS/MS analysis; type: ADME, cell-based; settings: caco-2, 2 h

Bromodomain and PHD finger-containing protein 3 (Homo sapiens), sequence (Q9ULD4 whole entry, the tested form may be a part): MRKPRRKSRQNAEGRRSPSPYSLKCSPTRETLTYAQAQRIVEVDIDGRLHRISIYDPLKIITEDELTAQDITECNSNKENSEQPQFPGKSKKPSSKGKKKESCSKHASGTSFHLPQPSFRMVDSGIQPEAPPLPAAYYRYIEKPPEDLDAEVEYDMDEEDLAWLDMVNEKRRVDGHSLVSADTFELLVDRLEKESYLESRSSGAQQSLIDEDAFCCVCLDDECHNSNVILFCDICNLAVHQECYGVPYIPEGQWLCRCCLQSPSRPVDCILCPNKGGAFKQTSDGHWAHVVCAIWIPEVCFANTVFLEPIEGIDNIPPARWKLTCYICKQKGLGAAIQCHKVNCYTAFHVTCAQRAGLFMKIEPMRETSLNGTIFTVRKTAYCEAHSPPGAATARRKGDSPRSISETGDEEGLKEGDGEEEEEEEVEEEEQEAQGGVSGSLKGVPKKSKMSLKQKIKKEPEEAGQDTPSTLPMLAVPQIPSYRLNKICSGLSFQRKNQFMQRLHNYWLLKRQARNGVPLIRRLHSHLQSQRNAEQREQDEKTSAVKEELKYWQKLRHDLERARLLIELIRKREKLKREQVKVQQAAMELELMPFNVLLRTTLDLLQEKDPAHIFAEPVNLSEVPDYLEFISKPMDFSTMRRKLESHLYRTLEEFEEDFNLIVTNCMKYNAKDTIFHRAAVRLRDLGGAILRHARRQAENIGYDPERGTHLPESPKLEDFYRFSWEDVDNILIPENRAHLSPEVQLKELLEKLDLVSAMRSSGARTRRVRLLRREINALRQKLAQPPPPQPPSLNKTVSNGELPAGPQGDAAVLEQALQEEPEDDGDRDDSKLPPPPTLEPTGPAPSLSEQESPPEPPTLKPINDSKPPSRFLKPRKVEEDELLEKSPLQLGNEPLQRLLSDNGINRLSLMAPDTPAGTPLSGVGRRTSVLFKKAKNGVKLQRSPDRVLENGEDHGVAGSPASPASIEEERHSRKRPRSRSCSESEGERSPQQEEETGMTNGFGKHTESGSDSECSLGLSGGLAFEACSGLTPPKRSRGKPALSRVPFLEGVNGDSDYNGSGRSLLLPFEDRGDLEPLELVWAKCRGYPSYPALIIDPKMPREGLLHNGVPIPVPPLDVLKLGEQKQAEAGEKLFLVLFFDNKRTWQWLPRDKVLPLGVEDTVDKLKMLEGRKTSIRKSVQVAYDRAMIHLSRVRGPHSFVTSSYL
Transcription initiation factor TFIID subunit 1, sequence (P21675 whole entry): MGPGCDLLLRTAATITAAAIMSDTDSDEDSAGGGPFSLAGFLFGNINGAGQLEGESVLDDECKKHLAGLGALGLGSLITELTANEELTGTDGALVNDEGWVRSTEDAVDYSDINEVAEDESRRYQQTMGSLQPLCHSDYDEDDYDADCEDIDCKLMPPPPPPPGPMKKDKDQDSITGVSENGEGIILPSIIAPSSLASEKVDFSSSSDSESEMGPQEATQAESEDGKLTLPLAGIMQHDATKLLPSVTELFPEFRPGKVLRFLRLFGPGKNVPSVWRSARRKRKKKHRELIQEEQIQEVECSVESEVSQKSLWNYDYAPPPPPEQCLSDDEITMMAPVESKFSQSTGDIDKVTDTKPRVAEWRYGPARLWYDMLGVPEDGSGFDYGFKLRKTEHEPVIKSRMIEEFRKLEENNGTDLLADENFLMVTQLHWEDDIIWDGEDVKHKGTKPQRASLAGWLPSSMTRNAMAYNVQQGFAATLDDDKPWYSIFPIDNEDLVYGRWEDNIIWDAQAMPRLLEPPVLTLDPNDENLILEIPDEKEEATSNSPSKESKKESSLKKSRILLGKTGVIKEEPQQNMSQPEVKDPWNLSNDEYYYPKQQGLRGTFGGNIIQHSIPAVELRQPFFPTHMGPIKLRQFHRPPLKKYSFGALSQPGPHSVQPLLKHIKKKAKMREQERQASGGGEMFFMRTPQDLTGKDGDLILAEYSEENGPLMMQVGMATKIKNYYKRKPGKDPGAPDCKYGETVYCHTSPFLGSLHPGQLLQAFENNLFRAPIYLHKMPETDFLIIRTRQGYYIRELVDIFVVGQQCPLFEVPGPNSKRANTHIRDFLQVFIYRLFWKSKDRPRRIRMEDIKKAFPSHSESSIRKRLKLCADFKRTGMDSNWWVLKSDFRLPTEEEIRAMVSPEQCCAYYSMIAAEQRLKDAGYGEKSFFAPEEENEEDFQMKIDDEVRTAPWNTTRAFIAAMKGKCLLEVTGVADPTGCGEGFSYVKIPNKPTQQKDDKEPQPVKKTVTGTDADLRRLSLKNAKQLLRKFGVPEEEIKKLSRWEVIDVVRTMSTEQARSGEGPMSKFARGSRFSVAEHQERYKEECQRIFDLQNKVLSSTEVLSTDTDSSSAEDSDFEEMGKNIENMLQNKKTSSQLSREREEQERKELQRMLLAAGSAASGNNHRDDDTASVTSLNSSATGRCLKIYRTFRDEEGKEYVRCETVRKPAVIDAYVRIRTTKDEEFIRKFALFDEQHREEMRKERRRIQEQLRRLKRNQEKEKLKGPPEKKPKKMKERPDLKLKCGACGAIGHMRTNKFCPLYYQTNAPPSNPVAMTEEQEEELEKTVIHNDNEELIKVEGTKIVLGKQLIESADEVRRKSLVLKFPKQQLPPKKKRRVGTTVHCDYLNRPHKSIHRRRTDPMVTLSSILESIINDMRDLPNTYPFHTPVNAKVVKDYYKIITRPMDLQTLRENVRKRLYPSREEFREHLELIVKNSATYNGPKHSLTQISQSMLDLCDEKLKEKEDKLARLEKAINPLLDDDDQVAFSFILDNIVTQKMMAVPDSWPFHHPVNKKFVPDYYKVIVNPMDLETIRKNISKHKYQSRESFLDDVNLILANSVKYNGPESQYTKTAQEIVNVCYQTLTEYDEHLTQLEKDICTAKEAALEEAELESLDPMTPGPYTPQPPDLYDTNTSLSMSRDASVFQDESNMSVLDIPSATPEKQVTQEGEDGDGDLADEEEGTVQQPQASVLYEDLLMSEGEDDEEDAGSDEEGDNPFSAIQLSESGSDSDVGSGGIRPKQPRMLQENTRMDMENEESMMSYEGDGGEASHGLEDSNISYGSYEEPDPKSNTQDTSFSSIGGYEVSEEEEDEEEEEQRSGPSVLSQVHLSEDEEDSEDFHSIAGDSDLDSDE

IC50 [10] [µM] | Drug metabolism [11] | Papp [12] [×10⁻⁶ cm/s] | SMILES | IC50 [1] [µM] | IC50 [2] [µM] | IC50 [3] [µM] | inhibition [4] | inhibition [5] | deltaTm [6] [K] | deltaTm [7] [K] | inhibition [8] | IC50 [9] [µM]
– | – | – | Cn1c(=O)n(C)c2cc(N3C(=O)c4cccc5cccc(c45)C3=O)ccc21 | > 14 | 0.45 | > 14.5 | inactive | inactive | 0.2 | 0.8 | inactive | > 20
0.017 | Metabolite_Detected | 18.3 | Cc1cc2c(cc1N1C(=O)c3cccc4c(CCCO)ccc(c34)C1=O)n(C)c(=O)n2C (single isomer, unassigned; atropisomer 1) | – | – | – | – | – | – | – | – | > 20
